Source: patent US10266520B2, “Bisamidinium-based inhibitors for the treatment of myotonic dystrophy” (The Board of Trustees of the University of Illinois, priority 2014, dated 2019)

Legend:
[1] = tested on: HeLa cells; test: SRB cytotoxicity assay; type: cell-based
Experimental: This finding indicates an advantage of the bisamidinium-based ligands over the acridine-containing ligands.
ITC, EMSA, confocal microscopy, IR splicing, and the reversal of rough-eye phenotype assays were conducted as previously described (Wong et al., J. Am. Chem. Soc. 2014, 136, 6355-6361). The cytotoxicity of 2a was accessed using a published protocol (Vichai et al., Sulforhodamine B colorimetric assay for cytotoxicity screening, Nat. Protoc. 2006, 1, 1112-1116).

[2] = tested on: insulin receptor (IR) pre-mRNA splicing; test: Correction of IR alternative splicing in DM1 cell model (RT-PCR); type: cell-based; settings: 1 μM
Text: FIG. 3A-B. (a) Schematic representation of IR alternative splicing. (b) Correction of IR splicing by compounds 2a and 1a as determined by conventional RT-PCR. Error bars represent standard deviation for three independent experiments, two-tail t-test *P<0.01,**P<0.005.
Because 2a is capable of inhibiting MBNL1-rCUG^exp both in vitro and in cells, we evaluated its ability to correct the splicing defects in the DM1 cell model. We chose to examine the IR mRNA mis-splicing, because among several pre-mRNA splicing defects associated with the depletion of MBNL1 protein, the reversal of IR splicing requires the largest amount of free MBNL1 and is therefore the more challenging defect. During the alternative splicing of IR, two products were generated: isoforms IR-A and IR-B with the exclusion and inclusion of exon 11, respectively (FIG. 3a). In normal skeletal muscle, IR-B is the dominant isoform, whereas IR-A is more abundant in DM1 skeletal muscle. […] In particular, compound 2a at 1 μM increased the abundance of isoform B to 49% (ca. 80% correction).
ITC, EMSA, confocal microscopy, IR splicing, and the reversal of rough-eye phenotype assays were conducted as previously described (Wong et al., J. Am. Chem. Soc. 2014, 136, 6355-6361). […]

[3] = tested on: MBNL1-rCUG^exp nuclear foci; settings: cited from earlier work
[4] = earlier work; cited from earlier work
[5] = earlier work; cited from earlier work; remark: listed apart in the source

| SMILES | HeLa cell death ([1]; 100 μM, 96 h) | cellular toxicity ([1]; lower concentrations (below 100 μM)) | correction of IR splicing ([2]; DM1 cell model) | abundance of IR isoform B ([2]; DM1 cell model (normal ca. 53%, DM1 34%)) | reduction of foci to (previous study) ([3]; 100 μM, previous study) | MBNL1-rCUG^exp nuclear foci in DM1 model cells (earlier work) ([3]; earlier work) | cytotoxicity [4] | water solubility [5] |
| --- | --- | --- | --- | --- | --- | --- | --- | --- |
| N=C(NCCCCNc1nc(N)nc(N)n1)c1ccc(C(=N)NCCCCNc2nc(N)nc(NCCCn3cc(CNc4nc(N)nc(NCCCCNC(=N)c5ccc(C(=N)NCCCCNc6nc(N)nc(N)n6)cc5)n4)nn3)n2)cc1 [Compound 2a] | ca. 10% | negligible cellular toxicity | ca. 80% | 49% | – | – | – | – |
| N=C(NCCCCNc1nc(N)nc(N)n1)c1ccc(C(=N)NCCCCNc2nc(N)nc(N)n2)cc1 [Compound 1a] | – | – | – | – | 32% | dissolved foci | low cytotoxicity | excellent water solubility |
